Assay results as given in the NIST ThermoML archive (doi:10.1016/j.jct.2011.06.009).
Numbers after ± are expanded uncertainties.

Assay: refractive index (Na D-line) (dimensionless)
Conditions: 101.33 kPa, Liquid, Standard Abbe refractometry

Structure (SMILES) | refractive index (293.1 K) | refractive index (298.1 K)
CCCCCCCCCCCC [dodecane] | 1.422 ± 0.0008 | 
CCCC[n+]1ccc(C)cc1.F[B-](F)(F)F [1-butyl-4-methylpyridinium tetrafluoroborate] |  | 1.4509 ± 0.0008
CCCCc1ccccc1 [butylbenzene] | 1.4895 ± 0.0008 | 
CCCc1ccccc1 [propylbenzene] | 1.4915 ± 0.0008 | 
